According to patent US20260166039A1 (SCHRÖDINGER, INC., priority 2022, published 2026):

These compounds were tested against T1, Wee1 kinase domain (Homo sapiens, UniProt P30291) (assay: Wee1 Kinase Biochemical Assay (ADP-Glo)). Settings: class symbols; 1 nM Wee1 enzyme, 15 uM ATP, 4 hours at 25° C.
T1 construct: Wee1 kinase domain was purchased from Carna (catalog #05-177); purchased Carna 05-177
In short: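 Carna Wee1 kinase domain at 1 nM, with 15 uM ATP and 2 ng/mL poly(Lys,Tyr 4:1) substrate in 40 mM Tris-HCl, 20 mM MgCl2, 0.1 mg/mL BSA, 2 mM DTT, run 4 h at 25° C. ADP formation read by ADP-Glo luminescence. Percent inhibition normalised to DMSO and saturating-inhibitor controls.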

T1 sequence (P30291 299-569 limits assumed): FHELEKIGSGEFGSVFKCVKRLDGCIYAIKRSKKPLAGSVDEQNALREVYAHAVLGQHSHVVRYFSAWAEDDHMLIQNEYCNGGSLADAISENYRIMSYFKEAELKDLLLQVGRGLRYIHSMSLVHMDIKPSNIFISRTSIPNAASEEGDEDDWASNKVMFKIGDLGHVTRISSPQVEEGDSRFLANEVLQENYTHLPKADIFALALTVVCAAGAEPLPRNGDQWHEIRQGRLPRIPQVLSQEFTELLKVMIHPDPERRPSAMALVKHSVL

| SMILES | IC50 [µM] |
| --- | --- |
| CN(C)Cc1cccc(N2c3nc(Nc4ccc(N5CCOCC5)cc4)ncc3[C@]3(C)COC(C)(C)C[C@H]23)n1 (single isomer, unassigned) [Example 524] | 0.1 to 1 |
| Cc1cc(Nc2ncc3c(n2)N(c2cccc([C@@H]4CCCN4)n2)[C@H]2CC(C)(C)OC[C@@]32C)ccc1N1CCOCC1 (single isomer, unassigned) [Example 530] | 0.01 to 0.1 |
| CC1(C)C[C@@H]2N(c3cccc(C4CCNCC4)n3)c3nc(Nc4ccc(N5CCOCC5)cc4)ncc3[C@]2(C)CO1 (single isomer, unassigned) [Example 532] | 0.1 to 1 |
| CN[C@@H](C)c1cccc(N2c3nc(Nc4ccc(N5CCOCC5)cc4)ncc3[C@]3(C)COC(C)(C)C[C@H]23)n1 (single isomer, unassigned) [Example 538] | 0.01 to 0.1 |
| CNC1(c2cccc(N3c4nc(Nc5ccc(N6CCOCC6)cc5)ncc4[C@]4(C)COC(C)(C)C[C@H]34)n2)CC1 (single isomer, unassigned) [Example 544] | 0.1 to 1 |
| CC1(C)C[C@@H]2N(c3cccc(C4(F)CNC4)n3)c3nc(Nc4ccc(N5CCOCC5)cc4)ncc3[C@]2(C)CO1 (single isomer, unassigned) [Example 546] | 0.1 to 1 |
| CNCc1ccnc(N2c3nc(Nc4ccc(N5CCOCC5)cc4)ncc3[C@@]3(C)COC(C)(C)C[C@@H]23)c1 (single isomer, unassigned) [Example 547] | 0.01 to 0.1 |
| CNCc1ccnc(N2c3nc(Nc4ccc(N5CCOCC5)cc4)ncc3[C@]3(C)COC(C)(C)C[C@H]23)c1 (single isomer, unassigned) [Example 548] | ≥ 1 |
| CN[C@H](C)c1cccc(N2c3nc(Nc4ccc(N5CCOCC5)cc4)ncc3[C@]3(C)COC(C)(C)C[C@H]23)n1 (single isomer, unassigned) [Example 550] | 0.1 to 1 |
| CN[C@H]1CCc2ccc(N3c4nc(Nc5ccc(N6CCOCC6)cc5)ncc4[C@@]4(C)COC(C)(C)C[C@@H]34)nc21 (single isomer, unassigned) [Example 552] | 0.1 to 1 |
| CN[C@@H]1CCc2ccc(N3c4nc(Nc5ccc(N6CCOCC6)cc5)ncc4[C@]4(C)COC(C)(C)C[C@H]34)nc21 (single isomer, unassigned) [Example 554] | 0.1 to 1 |
| CN[C@H](C)c1cc(C)nc(N2c3nc(Nc4ccc(N5CCOCC5)cc4)ncc3[C@@]3(C)COC(C)(C)C[C@@H]23)c1 (single isomer, unassigned) [Example 557] | < 0.01 |
| CN[C@H](C)c1cc(C)nc(N2c3nc(Nc4ccc(N5CCOCC5)cc4)ncc3[C@]3(C)COC(C)(C)C[C@H]23)c1 (single isomer, unassigned) [Example 558] | 0.1 to 1 |
| CN[C@@H](C)c1cc(C)nc(N2c3nc(Nc4ccc(N5CCOCC5)cc4)ncc3[C@]3(C)COC(C)(C)C[C@H]23)c1 (single isomer, unassigned) [Example 559] | ≥ 1 |
| CN[C@@H](C)c1cc(C)nc(N2c3nc(Nc4ccc(N5CCOCC5)cc4)ncc3[C@@]3(C)COC(C)(C)C[C@@H]23)c1 (single isomer, unassigned) [Example 560] | 0.01 to 0.1 |
| CC1(C)C[C@@H]2N(c3ccc4c(n3)CCNC4)c3nc(Nc4ccc(N5CCOCC5)cc4)ncc3[C@]2(C)CO1 (single isomer, unassigned) [Example 561] | ≥ 1 |
| CC1(C)C[C@@H]2N(c3ccc4c(n3)[C@](C)(N)CC4)c3nc(Nc4ccc(N5CCOCC5)cc4)ncc3[C@]2(C)CO1 (single isomer, unassigned) [Example 563] | 0.1 to 1 |
| CC1(C)C[C@@H]2N(c3ccc4c(n3)[C@@](C)(N)CC4)c3nc(Nc4ccc(N5CCOCC5)cc4)ncc3[C@]2(C)CO1 (single isomer, unassigned) [Example 566] | ≥ 1 |
| CN[C@]1(C)CCc2ccc(N3c4nc(Nc5ccc(N6CCOCC6)cc5)ncc4[C@]4(C)COC(C)(C)C[C@H]34)nc21 (single isomer, unassigned) [Example 570] | 0.1 to 1 |
| CN[C@@]1(C)CCc2ccc(N3c4nc(Nc5ccc(N6CCOCC6)cc5)ncc4[C@@]4(C)COC(C)(C)C[C@@H]34)nc21 (single isomer, unassigned) [Example 571] | < 0.01 |
| CNCc1cccc(N2c3nc(Nc4ccc(N5CCOCC5)cc4)ncc3[C@]3(C)COCC[C@H]23)n1 (single isomer, unassigned) [Example 573] | 0.1 to 1 |
| CN[C@@H](C)c1cccc(N2c3nc(Nc4ccc(N5C[C@H]6C[C@@H]5CO6)cc4)ncc3[C@]3(C)COC(C)(C)C[C@H]23)n1 (single isomer, unassigned) [Example 578] | 0.1 to 1 |
| CN[C@@H](C)c1cccc(N2c3nc(Nc4ccc(N5C[C@@H]6C[C@H]5CO6)cc4)ncc3[C@]3(C)COC(C)(C)C[C@H]23)n1 (single isomer, unassigned) [Example 580] | 0.1 to 1 |
| Cc1cc(Nc2ncc3c(n2)N(c2cccc(C(=O)N(C)C)n2)[C@H]2CC(C)(C)OC[C@@]32C)ccc1C1CCN(C)CC1 (single isomer, unassigned) [Example 584] | 0.1 to 1 |
| CN1CC2CC1CN2c1ccc(Nc2ncc3c(n2)N(c2cccc(N=S(C)(C)=O)c2)C2CC(C)(C)OCC32C)cc1 (single isomer, unassigned) [Example 711] | 0.1 to 1 |
| CNc1ncc2c(n1)N(c1cccc(N=S(C)(C)=O)n1)[C@@H]1CC(C)(C)OC[C@]21C (single isomer, unassigned) [Example 723] | 0.01 to 0.1 |

Next, values leading:

| IC50 [µM] | SMILES |
| --- | --- |
| 0.1 to 1 | CC1(C)C[C@@H]2N(c3cccc([C@@H]4CCCN4)n3)c3nc(Nc4ccc(N5CCOCC5)cc4)ncc3[C@]2(C)CO1 (single isomer, unassigned) [Example 525] |
| 0.01 to 0.1 | CC1(C)C[C@@H]2N(c3cccc([C@H]4CCCN4)n3)c3nc(Nc4ccc(N5CCOCC5)cc4)ncc3[C@]2(C)CO1 (single isomer, unassigned) [Example 527] |
| < 0.01 | CC1(C)C[C@H]2N(c3cccc([C@H]4CCCN4)n3)c3nc(Nc4ccc(N5CCOCC5)cc4)ncc3[C@@]2(C)CO1 (single isomer, unassigned) [Example 528] |
| 0.1 to 1 | CN1CCC(c2cccc(N3c4nc(Nc5ccc(N6CCOCC6)cc5)ncc4[C@]4(C)COC(C)(C)C[C@H]34)n2)CC1 (single isomer, unassigned) [Example 534] |
| 0.01 to 0.1 | CN1CCN(c2cccc(N3c4nc(Nc5ccc(N6CCOCC6)cc5)ncc4[C@]4(C)COC(C)(C)C[C@H]34)n2)CC1 (single isomer, unassigned) [Example 536] |
| 0.01 to 0.1 | CC1(C)C[C@@H]2N(c3cccc([C@H]4CCNC4)n3)c3nc(Nc4ccc(N5CCOCC5)cc4)ncc3[C@]2(C)CO1 (single isomer, unassigned) [Example 540] |
| 0.1 to 1 | CC1(C)C[C@@H]2N(c3cccc([C@H]4CCNC4)n3)c3nc(Nc4ccc(N5CCOCC5)cc4)ncc3[C@]2(C)CO1 (single isomer, unassigned) [Example 541] |
| 0.01 to 0.1 | CC1(C)C[C@@H]2N(c3cccc(C(C)(C)N)n3)c3nc(Nc4ccc(N5CCOCC5)cc4)ncc3[C@]2(C)CO1 (single isomer, unassigned) [Example 568] |
| 0.1 to 1 | CN1CCN(c2ccc(Nc3ncc4c(n3)N(c3cccc(N5CCOC5=O)n3)[C@H]3CC(C)(C)OC[C@@]43C)cc2)CC1 (single isomer, unassigned) [Example 576] |
| 0.1 to 1 | C[C@H]1CCC(=O)N1c1cccc(N2c3nc(Nc4ccc(N5CCN(C)CC5)cc4)ncc3[C@]3(C)COC(C)(C)C[C@H]23)n1 (single isomer, unassigned) [Example 582] |
| 0.01 to 0.1 | CN1CCN(c2ccc(Nc3ncc4c(n3)N(c3cccc(N5CCCC5=O)n3)[C@H]3CC(C)(C)OC[C@@]43C)cc2)CC1 (single isomer, unassigned) [Example 586] |
| 0.01 to 0.1 | C[C@@H]1COC(=O)N1c1cccc(N2c3nc(Nc4ccc(N5CCN(C)CC5)cc4)ncc3[C@]3(C)COC(C)(C)C[C@H]23)n1 (single isomer, unassigned) [Example 588] |
| 0.01 to 0.1 | CN1CCC(c2ccc(Nc3ncc4c(n3)N(c3cccc(N5CCOC5=O)n3)[C@H]3CC(C)(C)OC[C@@]43C)cc2)CC1 (single isomer, unassigned) [Example 590] |
| 0.01 to 0.1 | CN1C[C@H]2C[C@@H]1CN2c1ccc(Nc2ncc3c(n2)N(c2cccc(N4CCOC4=O)n2)[C@H]2CC(C)(C)OC[C@@]32C)cc1 (single isomer, unassigned) [Example 592] |
| 0.1 to 1 | CN1C[C@@H]2C[C@H]1CN2c1ccc(Nc2ncc3c(n2)N(c2cccc(N4CCOC4=O)n2)[C@H]2CC(C)(C)OC[C@@]32C)cc1 (single isomer, unassigned) [Example 594] |
| 0.01 to 0.1 | Cc1cc(Nc2ncc3c(n2)N(c2cccc(N4CCOC4=O)n2)[C@H]2CC(C)(C)OC[C@@]32C)ccc1C1CCN(C)CC1 (single isomer, unassigned) [Example 596] |
| 0.1 to 1 | C[C@H]1CN(c2cccc(N3c4nc(Nc5ccc(N6CCN(C)CC6)cc5)ncc4[C@]4(C)COC(C)(C)C[C@H]34)n2)C(=O)O1 (single isomer, unassigned) [Example 598] |
| 0.1 to 1 | CC1(C)C[C@@H]2N(c3cccc(N4CCOC4=O)n3)c3nc(Nc4ccc(N5CCNCC5)cc4)ncc3[C@]2(C)CO1 (single isomer, unassigned) [Example 600] |
| < 0.01 | CC1(C)C[C@H]2N(c3cccc(N4CCOC4=O)n3)c3nc(Nc4ccc(N5CCNCC5)cc4)ncc3[C@@]2(C)CO1 (single isomer, unassigned) [Example 601] |
| 0.01 to 0.1 | CN1CC[C@H](c2ccc(Nc3ncc4c(n3)N(c3cccc(N5CCOC5=O)n3)[C@H]3CC(C)(C)OC[C@@]43C)cc2)C1 (single isomer, unassigned) [Example 603] |
| 0.01 to 0.1 | CN1CC[C@@H](c2ccc(Nc3ncc4c(n3)N(c3cccc(N5CCOC5=O)n3)[C@H]3CC(C)(C)OC[C@@]43C)cc2)C1 (single isomer, unassigned) [Example 604] |
| 0.01 to 0.1 | CC1(C)C[C@@H]2N(c3cccc(N4CCOC4=O)n3)c3nc(Nc4ccc([C@@H]5CCNC5)cc4)ncc3[C@]2(C)CO1 (single isomer, unassigned) [Example 606] |
